The record followed here is ChEMBL document CHEMBL3046766, “Design, synthesis, and insecticidal evaluation of new benzoylureas containing isoxazoline and isoxazole group” (2011).

Common to all, as to format: functional
The subject of assay [1] is Mythimna separata. Kind of assay: Insecticidal activity against Mythimna separata (Oriental armyworm) fourth-instar larvae infested compound pre-treated corn leaves assessed as larvicidal activity at 0.5 mg/L measured 4 days post treatment.
The test system of a further assay is Plutella xylostella. Description: Insecticidal activity against Plutella xylostella (diamondback moth) […] larvae infested on compound pre-treated fresh cabbage leaves assessed as larvicidal activity measured 3 days post treatment.
The subject of assay [2] is Culex pipiens pallens. Kind of assay: Insecticidal activity against Culex pipiens pallens (mosquito) fourth-instar larvae assessed as larvicidal activity at 0.001 mg/L measured 8 days post treatment. The following applies: 192 h.
In assay [3] the test system is Culex pipiens pallens. Description: Insecticidal activity against Culex pipiens pallens (mosquito) fourth-instar larvae assessed as larvicidal activity at 0.005 mg/L measured 8 days post treatment. The settings on record: 192 h.
The test system of assay [4] is Mythimna separata. Description: Insecticidal activity against Mythimna separata (Oriental armyworm) fourth-instar larvae infested compound pre-treated corn leaves assessed as larvicidal activity at 1 mg/L measured 4 days post treatment.
In assay [5] the test system is Mythimna separata. Description: Insecticidal activity against Mythimna separata (Oriental armyworm) fourth-instar larvae infested compound pre-treated corn leaves assessed as larvicidal activity at 0.25 mg/L measured 4 days post treatment.
Assay [6] concerns Culex pipiens pallens. Description: Insecticidal activity against Culex pipiens pallens (mosquito) fourth-instar larvae assessed as larvicidal activity at 0.0005 mg/L measured 8 days post treatment. The following applies: 192 h.

Molecules are shown by their SMILES. ≈ marks a conversion by molar mass, not a printed value.

As for `CC(C)(C)O/N=C/c1ccc(NC(=O)NC(=O)c2c(F)cccc2F)cc1`, in the assay on Mythimna separata [1], the mortality (in general, the share of the test organisms that died) at 0.5 µg/mL came to 85%. Further, the LC50 (usually the concentration that kills 50% of the test population) in the assay on Plutella xylostella stood at 30.8 µg/mL (≈ 82 µM). The mortality at 0.001 µg/mL with Culex pipiens pallens [2] worked out at 70%. In addition, in the assay on Culex pipiens pallens [3], the mortality at 0.005 µg/mL stood at 100%. The mortality at 1 µg/mL in the assay on Mythimna separata [4] worked out at 100%. Besides, the mortality at 0.25 µg/mL in the assay on Mythimna separata [5] worked out at 0%. In addition, in the assay on Culex pipiens pallens [6], the mortality at 0.0005 µg/mL came out at 20%.
